In the supplement of paper PMC10307832:

Assays:
Assay in all cases: relative viability (nuclei count vs DMSO), 5 days (fraction); higher = more cells survive
IU1-47 + Trametinib = compound: CC1=CC(=C(N1C2=CC=C(C=C2)Cl)C)C(=O)CN3CCCCC3 [IU1-47] + CC(=O)Nc1cccc(-n2c(=O)n(C3CC3)c(=O)c3c(Nc4ccc(I)cc4F)n(C)c(=O)c(C)c32)c1 [Trametinib] (partner 0.02 µM)
Outline: (§1)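 Relative viability was taken as the ratio of nuclei in treated wells to nuclei in vehicle wells. Lung cancer cell lines in 1536-well plates received compounds by pin tool one day after seeding, either one drug alone or a fixed anchor-drug dose plus five library-drug doses (not always all listed) in √10 steps. Nuclei were counted on 4× images after 5 days of treatment, and values are medians of duplicate plates.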

IU1-47 + Palbociclib = compound: CC1=CC(=C(N1C2=CC=C(C=C2)Cl)C)C(=O)CN3CCCCC3 [IU1-47] + CC(=O)c1c(C)c2cnc(Nc3ccc(N4CCNCC4)cn3)nc2n(C2CCCC2)c1=O [Palbociclib] (partner 0.5 µM)
Outline: as §1

IU1-47 + Navitoclax = compound: CC1=CC(=C(N1C2=CC=C(C=C2)Cl)C)C(=O)CN3CCCCC3 [IU1-47] + CC1(C)CCC(c2ccc(Cl)cc2)=C(CN2CCN(c3ccc(C(=O)NS(=O)(=O)c4ccc(N[C@H](CCN5CCOCC5)CSc5ccccc5)c(S(=O)(=O)C(F)(F)F)c4)cc3)CC2)C1 [Navitoclax] (partner 0.5 µM)
Outline: as §1

IU1-47 + Linsitinib = compound: CC1=CC(=C(N1C2=CC=C(C=C2)Cl)C)C(=O)CN3CCCCC3 [IU1-47] + C[C@]1(O)C[C@@H](c2nc(-c3ccc4ccc(-c5ccccc5)nc4c3)c3c(N)nccn32)C1 [Linsitinib] (partner 1 µM)
Outline: as §1

| Cell Line | relative viability (IU1-47 + Trametinib; first compound 0.08 µM) | relative viability (IU1-47 + Trametinib; first compound 0.253 µM) | relative viability (IU1-47 + Trametinib; first compound 0.8 µM) | relative viability (IU1-47 + Trametinib; first compound 2.53 µM) | relative viability (IU1-47 + Trametinib; first compound 8 µM) | relative viability (IU1-47 + Palbociclib; first compound 0.08 µM) | relative viability (IU1-47 + Palbociclib; first compound 0.253 µM) | relative viability (IU1-47 + Palbociclib; first compound 0.8 µM) | relative viability (IU1-47 + Palbociclib; first compound 2.53 µM) | relative viability (IU1-47 + Palbociclib; first compound 8 µM) | relative viability (IU1-47 + Navitoclax; first compound 0.08 µM) | relative viability (IU1-47 + Navitoclax; first compound 0.253 µM) | relative viability (IU1-47 + Navitoclax; first compound 0.8 µM) | relative viability (IU1-47 + Navitoclax; first compound 2.53 µM) | relative viability (IU1-47 + Navitoclax; first compound 8 µM) | relative viability (IU1-47 + Linsitinib; first compound 0.08 µM) | relative viability (IU1-47 + Linsitinib; first compound 0.253 µM) | relative viability (IU1-47 + Linsitinib; first compound 0.8 µM) | relative viability (IU1-47 + Linsitinib; first compound 2.53 µM) | relative viability (IU1-47 + Linsitinib; first compound 8 µM) |
| --- | --- | --- | --- | --- | --- | --- | --- | --- | --- | --- | --- | --- | --- | --- | --- | --- | --- | --- | --- | --- |
| NCI-H1755 | 0.794 | 0.756 | 0.891 | 0.812 | 0.794 | 0.44 | 0.518 | 0.461 | 0.46 | 0.436 | 1.15 | 1.05 | 1.06 | 1.07 | 1.01 | 1.03 | 1.03 | 1.06 | 1.05 | 0.962 |
| NCI-H1792 | 0.569 | 0.392 | 0.437 | 0.402 | 0.422 | 0.727 | 0.643 | 0.707 | 0.44 | 0.544 | 0.65 | 0.725 | 0.76 | 0.678 | 0.251 | 0.615 | 0.581 | 0.449 | 0.299 | 0.336 |
| NCI-H1793 | 0.42 | – | 0.554 | 0.513 | 0.416 | 0.306 | – | 0.317 | 0.359 | 0.276 | 0.412 | 0.358 | 0.445 | – | 0.424 | 0.822 | 0.868 | 0.976 | – | 0.689 |
| NCI-H1915 | 0.296 | 0.288 | 0.28 | 0.3 | 0.324 | 0.561 | 0.513 | 0.539 | 0.565 | 0.528 | 0.822 | 0.805 | 0.828 | – | 0.833 | 1.15 | 1.12 | 1.15 | – | 1.14 |
| NCI-H1944 | 0.453 | 0.473 | 0.414 | 0.386 | 0.415 | 0.342 | 0.376 | 0.345 | 0.291 | 0.33 | 1.1 | 1.12 | 1.04 | – | 1.03 | 1.23 | 1.2 | 1.13 | – | 1.1 |
| NCI-H1975 | 0.337 | 0.324 | 0.464 | 0.328 | 0.322 | 0.586 | 0.547 | 0.868 | 0.611 | 0.364 | 1.25 | 1.14 | 1.38 | 1.18 | 0.888 | 1.06 | 1.17 | 1.11 | 0.98 | 0.752 |
| NCI-H1993 | 0.545 | 0.613 | 0.564 | 0.471 | 0.0511 | 0.854 | 0.698 | 0.659 | 0.558 | 0.513 | 0.876 | 0.938 | 0.893 | 0.979 | 0.895 | 0.762 | 0.732 | 0.749 | 0.76 | 0.73 |
| NCI-H2009 | 0.257 | 0.3 | 0.254 | 0.274 | 0.25 | 0.225 | 0.229 | 0.208 | 0.21 | 0.231 | 1.23 | 1.2 | 1.16 | 1.14 | 1.18 | 1.19 | 1.19 | 1.13 | 1.24 | 1.24 |
| NCI-H2023 | 0.563 | 0.636 | 0.607 | 0.608 | 0.557 | 0.464 | 0.45 | 0.421 | 0.47 | 0.344 | 1.02 | 0.934 | 1.05 | 1.02 | 1.1 | 0.701 | 0.686 | 0.665 | 0.617 | 0.611 |
